This is an account of results in patent publication US9770500B2 (priority 2011, dated 2017).

Some results are limits rather than exact numbers.

Series [1] deals with T1, TcdB (Clostridioides difficile, UniProt P18177). It is filed as biochemical, Clostridium difficile.
Series [2] has as its system Caco-2 cells. The following applies: MTT, TcdB 3.7 nM for 10 min.
In series [3] the target is T2, TcdA (Clostridioides difficile, UniProt P16154). The series is described as follows: cell-based.
For series [4], the system named is C. difficile VPI 10463. The class given is in vivo, C57BL/6 mice. An excerpt: Murine C. Difficile Infection Model. A conventional mouse model of antibiotic-induced C. difficile infection that closely resembles the spectrum of disease manifest in humans was used as described (Chen et al., Gastroenterology 135:1984-92 (2008)). Disease severity varies from fulminant with typical histopathologic features of C. difficile infection, to minimal diarrhea depending on challenge dose. 12 week-old C57BL/6 mice were pre-treated for three days with a mixture of antibiotics shown to disrupt the intestinal microflora (Chen et al., Gastroenterology 135:1984-92 (2008)). After two days, mice were injected with clindamycin and were challenged intragastrically with 10^6 C. difficile VPI 10463 vegetative cells the following day. […] Oral administration of vancomycin (50 mg/kg/day) was used as a positive control.

For series [5], the target named is T2, TcdA. The class given is in vivo, Cd-1 mice. As for the experimental part:
TcdA-Exposure of Mouse Ileal Loops. Cd-1 mice (10 week old males; Charles River Labs) were fasted overnight. Ileal loops were ligated in anesthetized animals via laparotomy and injected with 0.15 ml of purified TcdA, TcdA-SNO or TcdA-NEM (10 μg) or buffer as described (Savidge et al., Gastroenterology 125:413-20 (2003); Oiu et al., Gastroenterology 111: 409-18 (1996)). […] Four hrs after TcdA administration, mice were euthanized and fluid secretion was determined as the loop weight ([…])-to-length (cm) ratio. Full thickness loops were frozen in liquid nitrogen or fixed in 10% formalin in PBS (pH 7.2) for 24 hours and embedded in paraffin using routine procedures. Histological severity of enteritis was evaluated by assessing (1) epithelial cell necrosis, (2) hemorrhagic congestion and edema of the mucosa, and (3) neutrophil margination and tissue infiltration (Savidge et al., Gastroenterology 125:413-20 (2003); Oiu et al., Gastroenterology 111: 409-18 (1996)).
Myeloperoxidase Assay. Neutrophil myeloperoxidase (MPO) activity is an indicator of tissue inflammation. Intestinal segments (100-250 mg) were homogenized in 1 ml HTAB buffer and centrifuged at 20,000×g for 10 min at 4° C. Pellets were resuspended in 1 ml HTAB buffer containing 1% hexadecyltrimethlammonium to negate pseudoperoxidase activity. MPO activity was measured in supernatants following 3 cycles of sonication, freezing and thawing. After centrifugation at 40,000×g for 15 min at 4° C., supernatants (10 μl) were mixed with 90 μl of potassium phosphate buffer containing 0.167 mg/ml O-dianiside dihydrochloride and 0.0005% hydrogen peroxide. Activity was measured every 2 minutes for 20 minutes at 450 nm.
Quantitative Cytokine mRNA Measurements. Total RNA was extracted from cells or frozen tissues, treated with 1 U DNAse I and reversed transcribed (Gene Amp RNA-PCR Kit). Real-time rtPCR reactions were run with SYBR Green PCR Master-Mix for 40 cycles on a Chromo4 detector (Bio-Rad Ltd) (94° C. for 2 min; 94° C. for 1 min; 60° C. for 1 min; 72QC for lmin; repeat step 2-to-4 for 40 cycles; 72° C. for 10 min). Primer sets were for human IL-8: (Forward 5′-[…]-3′ SEQ ID NO:2; Reverse 5′-[…]-3′ SEQ ID NO:3); murine TNFα (Forward 5′-[…]-3′ SEQ ID NO:4, Reverse 5′-[…] […]-3′ SEQ ID NO:5); murine […] (Forward 5′-TTGAC[…]-3′ SEQ ID NO:6, Reverse 5′-[…]-3′ SEQ ID NO:7). Samples were normalized against commercial GAPDH or 18S rRNA primers and probes (Applied Biosystems) and relative expression levels were calculated as previously described (Savidge et al., Gastroenterology 132:1344-58 (2007)).

Series [6] addresses toxin glucosyltransferase activity (Clostridioides difficile, UniProt P16154). The class given is biochemical, Clostridium difficile. As for the experimental part: Cell Free Rac1 Glucosvlation Assay. Glucosyltransferase activity of TcdA and TcdA-SNO was measured by their ability to glucosylate Rho GTPase Rac1 in a cell-free assay. Caco-2 cell pellets were resuspended in glucosylation buffer (50 mM HEPES, pH 7.5, 100 mM KCl, 1 mM MnCl2 and 2 mM MgCl2) and lysed with a syringe (25G, 40 passes through the needle). After centrifugation (167,000×g, 3 min), the supernatant was used as a post-nuclear cell lysate. To perform the glucosylation assay, the cell lysates were incubated with TcdA or TcdA-SNO (final concentration of the toxins was 5 μg/ml) at 37° C. for 30 min. The reaction was terminated by heating at 100° C. for 5 min in SDS-sample buffer. To measure Rac1 glucosylation levels, lysates were separated on a 4-20% gradient SDS-PAGE gel and transferred onto a nitrocellulose membrane. An antibody that specifically recognizes the non-glucosylated form of Rac1 (clone 102, BD Bioscience) was used for detection.

For series [7], the target named is T1, TcdB.
Series [8] has as its system C. difficile toxin.
For series [9] the following is noted: in vivo; cited from earlier work.
Series [10] addresses C. difficile TcdA holotoxin (Clostridioides difficile, UniProt P16154). It is filed as binding, Clostridium difficile.
Series [11] has as its target deoxygenated hemoglobin (Homo sapiens, UniProt P68871). The class given is binding.

T1 sequence (P18177 2-2366 limits assumed): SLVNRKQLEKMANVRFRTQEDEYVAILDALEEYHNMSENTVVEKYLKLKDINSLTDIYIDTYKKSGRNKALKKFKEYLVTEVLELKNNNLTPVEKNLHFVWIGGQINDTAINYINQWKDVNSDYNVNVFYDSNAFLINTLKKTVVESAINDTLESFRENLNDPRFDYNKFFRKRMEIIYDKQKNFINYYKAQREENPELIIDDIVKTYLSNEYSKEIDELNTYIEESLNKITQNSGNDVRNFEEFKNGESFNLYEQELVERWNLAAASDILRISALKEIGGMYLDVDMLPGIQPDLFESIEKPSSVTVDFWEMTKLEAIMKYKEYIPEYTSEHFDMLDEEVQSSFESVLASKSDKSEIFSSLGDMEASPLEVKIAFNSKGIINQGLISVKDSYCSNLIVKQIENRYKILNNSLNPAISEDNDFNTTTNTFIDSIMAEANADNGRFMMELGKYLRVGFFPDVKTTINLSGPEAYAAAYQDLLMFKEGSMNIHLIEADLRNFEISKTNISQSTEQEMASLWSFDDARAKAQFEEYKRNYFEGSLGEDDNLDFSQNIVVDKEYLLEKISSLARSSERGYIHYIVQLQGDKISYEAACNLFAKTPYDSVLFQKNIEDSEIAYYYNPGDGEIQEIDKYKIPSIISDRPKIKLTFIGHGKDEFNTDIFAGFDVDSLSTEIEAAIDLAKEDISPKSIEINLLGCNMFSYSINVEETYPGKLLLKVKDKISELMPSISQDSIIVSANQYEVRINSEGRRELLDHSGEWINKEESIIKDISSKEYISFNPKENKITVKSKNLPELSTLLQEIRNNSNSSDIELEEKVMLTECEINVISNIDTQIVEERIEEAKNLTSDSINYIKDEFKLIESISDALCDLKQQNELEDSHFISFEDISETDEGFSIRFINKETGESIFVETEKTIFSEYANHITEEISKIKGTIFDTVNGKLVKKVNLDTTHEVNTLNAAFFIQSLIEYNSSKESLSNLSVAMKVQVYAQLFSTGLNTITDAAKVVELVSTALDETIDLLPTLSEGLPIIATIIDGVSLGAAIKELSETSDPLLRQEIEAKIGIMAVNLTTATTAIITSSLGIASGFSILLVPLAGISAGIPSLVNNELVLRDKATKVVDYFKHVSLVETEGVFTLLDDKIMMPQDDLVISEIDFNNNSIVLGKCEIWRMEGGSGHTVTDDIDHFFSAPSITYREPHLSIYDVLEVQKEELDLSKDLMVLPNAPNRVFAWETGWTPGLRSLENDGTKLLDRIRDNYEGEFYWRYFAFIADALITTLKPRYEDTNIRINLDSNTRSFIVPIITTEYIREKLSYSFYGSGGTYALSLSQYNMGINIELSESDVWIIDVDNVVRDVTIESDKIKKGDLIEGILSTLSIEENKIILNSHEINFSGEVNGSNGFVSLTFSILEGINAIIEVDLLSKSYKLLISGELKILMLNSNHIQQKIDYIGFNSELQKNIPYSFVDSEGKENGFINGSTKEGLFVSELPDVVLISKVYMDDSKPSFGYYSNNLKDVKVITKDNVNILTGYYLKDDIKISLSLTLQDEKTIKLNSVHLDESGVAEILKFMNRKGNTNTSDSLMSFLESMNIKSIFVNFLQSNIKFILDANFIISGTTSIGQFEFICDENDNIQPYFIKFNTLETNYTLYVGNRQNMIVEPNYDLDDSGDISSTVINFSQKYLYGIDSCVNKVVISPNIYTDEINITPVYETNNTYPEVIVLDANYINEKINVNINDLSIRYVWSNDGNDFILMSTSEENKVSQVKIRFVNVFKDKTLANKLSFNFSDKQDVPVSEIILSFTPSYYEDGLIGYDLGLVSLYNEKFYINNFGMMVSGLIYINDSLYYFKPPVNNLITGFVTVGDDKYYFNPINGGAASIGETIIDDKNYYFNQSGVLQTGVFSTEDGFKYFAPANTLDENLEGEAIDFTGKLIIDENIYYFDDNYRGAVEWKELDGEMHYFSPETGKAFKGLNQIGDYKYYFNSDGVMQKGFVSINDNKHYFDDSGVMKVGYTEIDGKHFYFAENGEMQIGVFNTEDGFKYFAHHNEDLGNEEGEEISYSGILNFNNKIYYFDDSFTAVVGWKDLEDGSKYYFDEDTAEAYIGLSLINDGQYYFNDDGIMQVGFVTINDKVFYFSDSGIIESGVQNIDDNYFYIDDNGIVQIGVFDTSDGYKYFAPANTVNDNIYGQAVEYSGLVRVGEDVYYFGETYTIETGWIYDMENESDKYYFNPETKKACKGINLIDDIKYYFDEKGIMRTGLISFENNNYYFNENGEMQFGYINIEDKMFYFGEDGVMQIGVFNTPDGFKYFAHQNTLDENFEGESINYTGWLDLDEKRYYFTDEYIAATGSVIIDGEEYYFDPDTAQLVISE
T2 sequence (P16154 whole entry, looked up): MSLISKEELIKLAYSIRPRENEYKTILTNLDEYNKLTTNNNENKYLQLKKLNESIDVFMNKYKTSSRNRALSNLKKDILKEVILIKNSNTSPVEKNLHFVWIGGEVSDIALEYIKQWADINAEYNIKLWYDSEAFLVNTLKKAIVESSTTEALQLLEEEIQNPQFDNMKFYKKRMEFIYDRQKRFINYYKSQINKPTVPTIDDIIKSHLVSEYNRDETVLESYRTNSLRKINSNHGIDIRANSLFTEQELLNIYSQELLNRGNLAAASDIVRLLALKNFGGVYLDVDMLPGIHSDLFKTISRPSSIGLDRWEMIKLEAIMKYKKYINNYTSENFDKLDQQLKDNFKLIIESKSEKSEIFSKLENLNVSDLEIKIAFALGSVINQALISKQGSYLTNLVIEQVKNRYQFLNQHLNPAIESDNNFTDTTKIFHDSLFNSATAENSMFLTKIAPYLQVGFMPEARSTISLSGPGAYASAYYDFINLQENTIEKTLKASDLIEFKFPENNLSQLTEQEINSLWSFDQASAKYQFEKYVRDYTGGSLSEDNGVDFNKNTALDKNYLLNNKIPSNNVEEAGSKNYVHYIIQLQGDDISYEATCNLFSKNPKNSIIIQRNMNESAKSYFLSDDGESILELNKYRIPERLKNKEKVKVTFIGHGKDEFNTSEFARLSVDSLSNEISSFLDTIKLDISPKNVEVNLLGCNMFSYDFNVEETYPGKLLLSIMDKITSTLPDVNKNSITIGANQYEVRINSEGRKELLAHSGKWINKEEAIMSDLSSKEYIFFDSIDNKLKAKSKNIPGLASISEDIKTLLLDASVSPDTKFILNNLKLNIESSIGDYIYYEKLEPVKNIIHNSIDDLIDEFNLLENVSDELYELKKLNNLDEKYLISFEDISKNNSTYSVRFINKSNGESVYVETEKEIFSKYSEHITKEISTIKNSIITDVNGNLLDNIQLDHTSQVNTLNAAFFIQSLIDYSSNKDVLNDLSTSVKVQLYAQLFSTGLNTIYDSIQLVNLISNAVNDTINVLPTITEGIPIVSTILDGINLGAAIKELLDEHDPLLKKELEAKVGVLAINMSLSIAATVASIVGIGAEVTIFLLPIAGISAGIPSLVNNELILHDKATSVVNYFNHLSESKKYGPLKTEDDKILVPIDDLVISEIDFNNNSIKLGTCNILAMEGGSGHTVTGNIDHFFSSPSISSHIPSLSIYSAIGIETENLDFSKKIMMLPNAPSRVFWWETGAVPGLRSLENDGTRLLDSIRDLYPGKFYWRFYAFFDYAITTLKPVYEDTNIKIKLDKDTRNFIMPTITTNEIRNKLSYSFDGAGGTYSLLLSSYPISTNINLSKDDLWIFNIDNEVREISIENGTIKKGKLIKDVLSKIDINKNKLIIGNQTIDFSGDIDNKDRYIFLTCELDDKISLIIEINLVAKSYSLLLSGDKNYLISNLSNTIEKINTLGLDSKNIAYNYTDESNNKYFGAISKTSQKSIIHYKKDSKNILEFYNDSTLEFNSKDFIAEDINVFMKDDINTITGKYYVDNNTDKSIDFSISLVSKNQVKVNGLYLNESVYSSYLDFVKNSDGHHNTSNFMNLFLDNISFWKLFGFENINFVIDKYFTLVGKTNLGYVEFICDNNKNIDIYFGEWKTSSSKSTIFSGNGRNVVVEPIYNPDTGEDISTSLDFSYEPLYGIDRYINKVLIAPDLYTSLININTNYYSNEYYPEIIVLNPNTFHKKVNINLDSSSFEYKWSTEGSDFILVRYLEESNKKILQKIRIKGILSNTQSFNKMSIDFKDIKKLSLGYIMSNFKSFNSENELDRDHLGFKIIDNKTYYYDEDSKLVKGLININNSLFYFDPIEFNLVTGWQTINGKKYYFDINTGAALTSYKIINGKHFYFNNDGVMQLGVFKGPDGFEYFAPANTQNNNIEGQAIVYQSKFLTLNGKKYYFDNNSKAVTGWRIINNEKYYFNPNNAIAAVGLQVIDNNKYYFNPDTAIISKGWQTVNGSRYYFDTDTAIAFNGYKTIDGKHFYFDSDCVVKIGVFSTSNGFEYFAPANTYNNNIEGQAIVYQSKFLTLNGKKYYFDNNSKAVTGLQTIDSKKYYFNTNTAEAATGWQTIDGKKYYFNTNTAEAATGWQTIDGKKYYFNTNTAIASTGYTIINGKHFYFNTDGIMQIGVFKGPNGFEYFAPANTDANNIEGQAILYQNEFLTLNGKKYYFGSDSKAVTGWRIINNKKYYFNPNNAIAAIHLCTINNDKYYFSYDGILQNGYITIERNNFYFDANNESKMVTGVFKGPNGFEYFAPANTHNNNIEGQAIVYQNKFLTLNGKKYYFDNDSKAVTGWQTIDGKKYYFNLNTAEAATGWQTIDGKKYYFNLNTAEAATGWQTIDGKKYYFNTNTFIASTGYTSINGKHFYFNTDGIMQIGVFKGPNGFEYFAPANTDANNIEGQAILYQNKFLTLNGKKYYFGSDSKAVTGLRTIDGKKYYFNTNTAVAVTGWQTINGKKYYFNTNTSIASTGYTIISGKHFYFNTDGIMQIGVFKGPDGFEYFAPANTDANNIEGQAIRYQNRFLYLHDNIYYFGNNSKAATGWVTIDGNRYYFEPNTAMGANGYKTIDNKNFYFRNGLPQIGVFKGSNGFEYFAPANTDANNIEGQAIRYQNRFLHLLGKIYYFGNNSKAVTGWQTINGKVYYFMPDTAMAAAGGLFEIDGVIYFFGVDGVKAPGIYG

On to D-myo-5-PP-(1,2,3,4,6)InsP5 [m-InsP7], for which the TcdB autocleavage activity result in series [1] is listed as “not significantly different”.
Turning to `COC(=O)[C@@H](N)CCCNC(=N)N[N+](=O)[O-]` [L-NAME, N^G-nitro-L-arginine methyl ester], the “effect on cytoprotection of eNOS expressing Caco-2 cells against TcdB” value in series [2] is listed as “reversed”.
Consider `O[C@H](CS)[C@H](O)CS` (racemic) [DTT, dithiothreitol], for which, in series [1], the “toxin autocleavage with agent alone” value was “No significant toxin autocleavage”.
Regarding `N[C@@H](CCC(=O)N[C@@H](CSN=O)C(=O)NCC(=O)O)C(=O)O` [GSNO, S-nitrosoglutathione], half-maximal inhibition in series [3] (IC50) required 57.9 µM. Moreover, the “survival (Kaplan-Meier)” value in series [4] (oral gavage GSNO 10 mg/kg/day) is recorded as “survival benefit”. In addition, the “TcdA induced fluid secretion in murine ileal loops” value in [5] (GSNO 10 mg/kg in 0.1 ml, TcdA 10 μg, 4 hrs) was “inhibits”. Moreover, in series [5] (TcdA 10 μg, 4 hrs), the “TcdA induced TNF-α and IL-1γ gene transcripts” value is recorded as “significantly attenuated”. Besides, the “toxin-induced disease activity (histological damage, inflammation, intestinal secretion)” value in [5] (co-injected with TcdA into ileal loops for 4 hrs) is “markedly reduced”. Besides, the “glucosyltransferase activity in cell lysates” value in series [6] is listed as “did not inhibit toxin binding to Caco-2 cells or alter glucosyltransferase activity”. Also, in series [1], the “effect on InsP6 induced TcdB autocleavage” value is reported as “inhibited”. Besides, the “IC50 of GSNO with inositolphosphate cofactor” value in [7] is “low micromolar range”. Also, in series [8], the “toxin binding to Caco-2 cells” value is reported as “did not inhibit”. For the same compound, the tolerability result in series [9] is reported as “well tolerated”. In [10], the “effect on InsP6 binding to the cysteine protease domain” value is “significantly inhibited”.
In the case of `N[C@@H](CCC(=O)N[C@@H](CS)C(=O)NCC(=O)O)C(=O)O` [GSH, glutathione], in series [1], the “effect on InsP6 induced TcdB autocleavage” value was “potentiated” and the “toxin autocleavage with agent alone” value is given as “No significant toxin autocleavage”.
Regarding `CCOC(=O)CNC(=O)[C@H](CS)NC(=O)CC[C@H](N)C(=O)O` [GSH-EE, GSH-ethyl ester], the “effect on cytoprotection of eNOS expressing Caco-2 cells against TcdB” value in series [2] was “reversed”.
Turning to “(rac1)-1(3)-PP-(2,3,4,5,6)InsP5 [r-InsP7]”, the TcdB autocleavage activity result in series [1] is “not significantly different”.
As to `O=P(O)(O)OC1C(OP(=O)(O)O)C(OP(=O)(O)O)C(OP(=O)(O)O)C(OP(=O)(O)O)C1OP(=O)(O)O` (stereo not shown) [InsP6, inositol hexakisphosphate], the “effect of added InsP6 on survival benefit of GSNO” value in [4] (oral InsP6 0.25 mg/kg/day with GSNO 10 mg/kg/day) is listed as “potentiated”. Further, the “effect of added InsP6 on GSNO inhibition of TNF-α and IL-1γ transcripts” value in series [5] (InsP6 1 mM with GSNO) is given as “potentiated”. In addition, the “effect of added InsP6 on GSNO protection against fluid secretion” value in series [5] (InsP6 1 mM with GSNO 10 mg/kg) is listed as “enhanced”. In series [11], this compound came in with a binding affinity of over 1.6 nM/mg protein.
